Assay results published in US9371320B2, “Heterocyclic compound” (TAKEDA PHARMACEUTICAL COMPANY LIMITED, priority 2012, dated 2016).
Read-outs that look alike come from different tables or passages of the source.

Assays:
JAK1 = target: T1, JAK1 (Homo sapiens, UniProt P23458); test: JAK1 enzyme inhibition test (LANCE method); assay type: biochemical; details: for inhibition at 10 µM: read-out: Inhibitory rate (%) JAK1 10 μM; for inhibition at 1 µM: test compound 1 μM, read-out: Inhibitory rate (%) JAK1 1 μM
T1 construct: purchased Invitrogen
T1 sequence (P23458 whole entry): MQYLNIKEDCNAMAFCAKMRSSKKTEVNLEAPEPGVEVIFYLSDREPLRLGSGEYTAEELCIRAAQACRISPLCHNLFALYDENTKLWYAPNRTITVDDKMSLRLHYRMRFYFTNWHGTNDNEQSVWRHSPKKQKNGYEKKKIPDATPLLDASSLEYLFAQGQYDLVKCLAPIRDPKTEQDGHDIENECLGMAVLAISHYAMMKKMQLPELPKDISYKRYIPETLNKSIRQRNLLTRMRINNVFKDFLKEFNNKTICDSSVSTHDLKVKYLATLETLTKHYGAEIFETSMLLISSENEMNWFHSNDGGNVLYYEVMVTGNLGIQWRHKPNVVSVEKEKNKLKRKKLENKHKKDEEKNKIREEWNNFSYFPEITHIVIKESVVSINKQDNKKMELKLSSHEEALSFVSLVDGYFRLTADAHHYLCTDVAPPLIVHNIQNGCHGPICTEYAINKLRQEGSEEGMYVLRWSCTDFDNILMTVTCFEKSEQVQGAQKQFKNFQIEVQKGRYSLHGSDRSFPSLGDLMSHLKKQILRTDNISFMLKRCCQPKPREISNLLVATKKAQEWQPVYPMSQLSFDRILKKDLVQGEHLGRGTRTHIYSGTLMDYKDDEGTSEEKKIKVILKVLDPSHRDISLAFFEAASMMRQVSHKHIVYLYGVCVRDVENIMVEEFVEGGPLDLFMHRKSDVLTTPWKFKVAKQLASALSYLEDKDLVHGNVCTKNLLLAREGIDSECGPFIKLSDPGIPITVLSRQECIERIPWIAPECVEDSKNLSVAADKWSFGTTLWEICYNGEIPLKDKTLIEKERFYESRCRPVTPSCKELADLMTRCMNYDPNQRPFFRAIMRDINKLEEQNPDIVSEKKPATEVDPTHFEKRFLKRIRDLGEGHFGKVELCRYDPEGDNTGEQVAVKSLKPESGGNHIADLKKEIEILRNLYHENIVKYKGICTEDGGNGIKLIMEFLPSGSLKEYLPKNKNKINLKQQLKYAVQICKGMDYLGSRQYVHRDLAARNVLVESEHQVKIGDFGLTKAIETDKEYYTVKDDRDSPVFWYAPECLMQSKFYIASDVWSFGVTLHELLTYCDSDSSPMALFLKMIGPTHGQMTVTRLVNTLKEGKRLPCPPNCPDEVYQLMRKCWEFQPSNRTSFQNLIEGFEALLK
Summary of the method: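 Reactions ran 1 h at room temperature in HEPES pH 7.5/MgCl2 buffer, with ATP solution at 150 μM and JAK1 and ULight peptide solutions at 187.5 ng/mL and 300 nM. Reactions were stopped with EDTA, and phosphorylation was read by Eu antibody time-resolved fluorescence at 665 nm. Inhibition was scaled to a no-enzyme control as 100%.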

Tyk2 = target: T2, Tyk2 (Homo sapiens, UniProt P29597); test: Tyk2 enzyme inhibition test (LANCE method); assay type: biochemical; details: for inhibition at 1 µM: read-out: Inhibitory rate (%) Tyk2 1 μM
T2 construct: purchased Invitrogen
T2 sequence (P29597 whole entry): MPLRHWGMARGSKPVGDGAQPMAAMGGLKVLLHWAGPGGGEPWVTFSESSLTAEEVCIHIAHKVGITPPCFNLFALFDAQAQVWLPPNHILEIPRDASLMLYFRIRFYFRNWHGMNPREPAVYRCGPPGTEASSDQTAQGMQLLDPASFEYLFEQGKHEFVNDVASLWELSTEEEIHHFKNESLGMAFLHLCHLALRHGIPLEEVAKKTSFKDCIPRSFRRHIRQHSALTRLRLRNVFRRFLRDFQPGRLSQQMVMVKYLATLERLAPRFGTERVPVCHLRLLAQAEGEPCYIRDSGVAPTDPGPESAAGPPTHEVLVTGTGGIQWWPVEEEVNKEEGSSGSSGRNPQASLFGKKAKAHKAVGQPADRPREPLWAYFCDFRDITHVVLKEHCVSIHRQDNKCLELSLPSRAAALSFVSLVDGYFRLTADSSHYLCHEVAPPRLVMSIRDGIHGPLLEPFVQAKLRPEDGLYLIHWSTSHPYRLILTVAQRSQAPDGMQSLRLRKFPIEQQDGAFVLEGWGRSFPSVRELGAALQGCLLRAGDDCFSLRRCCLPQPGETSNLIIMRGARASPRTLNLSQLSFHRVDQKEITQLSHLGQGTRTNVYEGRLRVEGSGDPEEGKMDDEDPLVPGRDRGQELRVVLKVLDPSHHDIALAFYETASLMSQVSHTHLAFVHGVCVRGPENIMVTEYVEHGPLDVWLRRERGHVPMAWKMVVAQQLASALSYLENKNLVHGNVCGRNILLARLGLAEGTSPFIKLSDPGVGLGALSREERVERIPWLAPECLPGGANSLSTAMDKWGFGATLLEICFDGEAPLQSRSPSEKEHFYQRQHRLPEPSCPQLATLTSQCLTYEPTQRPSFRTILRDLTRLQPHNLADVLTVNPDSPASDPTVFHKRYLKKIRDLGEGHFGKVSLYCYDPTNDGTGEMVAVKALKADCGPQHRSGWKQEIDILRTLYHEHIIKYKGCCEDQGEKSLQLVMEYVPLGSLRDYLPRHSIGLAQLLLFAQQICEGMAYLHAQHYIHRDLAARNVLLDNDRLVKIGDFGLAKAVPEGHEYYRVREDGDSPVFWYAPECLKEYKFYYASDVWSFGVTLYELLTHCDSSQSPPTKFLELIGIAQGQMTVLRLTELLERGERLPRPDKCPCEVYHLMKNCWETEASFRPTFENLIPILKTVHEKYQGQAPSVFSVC
Summary of the method: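 LANCE TR-FRET read-out (ex 340/em 665 nm, 100 μs delay) of ULight-JAK1 phosphorylation, with no-enzyme wells as 100% inhibition. Reaction run 1 h at room temperature in pH 7.5 HEPES buffer; enzyme 375 ng/mL, substrate 300 nM and ATP 30 μM are solution concentrations before mixing.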

[1] = test compound 10 μM (Ex. 182-220), beside Tyk2 1 μM

| Structure (SMILES) | inhibition at 1 µM (Tyk2; test compound 1 μM) [%] | inhibition at 1 µM (JAK1) [%] | other results |
| --- | --- | --- | --- |
| N#Cc1ccc(-c2nn(C3CCCC3)c3cc[nH]c(=O)c23)cc1 [Example 201, 4-(1-cyclopentyl-4-oxo-4,5-dihydro-1H-pyrazolo[4,3-c]pyridin-3-yl)benzonitrile] | 97 | – | inhibition at 10 µM (JAK1; [1]): 96% |
| CC1(O)CCC(n2nc(-c3ccc(S(N)(=O)=O)cc3)c3c(=O)[nH]ccc32)CC1 (stereo not shown) [Example 197, 4-(1-(4-hydroxy-4-methylcyclohexyl)-4-oxo-4,5-dihydro-1H-pyrazolo[4,3-c]pyridin-3-yl)benzenesulfonamide] | – | – | Inhibitory rate (%) JAK1 10 μM (JAK1; [1]): 99%; Inhibitory rate (%) Tyk2 1 μM (Tyk2; test compound 1 μM): 98% |
| COC(=O)c1ccc(-c2nn(-c3c(F)cccc3F)c3cc[nH]c(=O)c23)cc1 [Example 260, methyl 4-(1-(2,6-difluorophenyl)-4-oxo-4,5-dihydro-1H-pyrazolo[4,3-c]pyridin-3-yl)benzoate] | 94 | 77 | – |
| O=c1[nH]cc(Br)c2c1c(-c1cn[nH]c1)nn2-c1c(F)cccc1F [Example 176, 7-bromo-1-(2,6-difluorophenyl)-3-(1H-pyrazol-4-yl)-1,5-dihydro-4H-pyrazolo[4,3-c]pyridin-4-one] | 100 | 95 | – |
| COC(=O)c1cc(-n2nc(-c3ccccc3C)c3c(C#N)c[nH]c(=O)c32)cs1 [Example 68, methyl 4-(4-cyano-3-(2-methylphenyl)-7-oxo-6,7-dihydro-1H-pyrazolo[3,4-c]pyridin-1-yl)thiophene-2-carboxylate] | 67 | 4 | – |
| NS(=O)(=O)c1ccc(-c2cn([C@H]3CC[C@H](O)CC3)c3cc[nH]c(=O)c23)cc1 [Example 31, 4-(1-(trans-4-hydroxycyclohexyl)-4-oxo-4,5-dihydro-1H-pyrrolo[3,2-c]pyridin-3-yl)benzenesulfonamide] | 90 | 95 | – |
| NC(=O)c1cc(-c2nn([C@H]3CC[C@@H](N)CC3)c3cc[nH]c(=O)c23)cs1 [Example 298, 4-(1-(cis-4-aminocyclohexyl)-4-oxo-4,5-dihydro-1H-pyrazolo[4,3-c]pyridin-3-yl)thiophene-2-carboxamide] | – | – | inhibition at 10 µM (JAK1; test compound 10 μM): 81%; inhibition at 10 µM (Tyk2; test compound 10 μM, read-out: Inhibitory rate (%) Tyk2 10 μM): 58% |
| O=c1[nH]ccc2c1c(-c1ccc(C3CCOCC3)cc1)nn2-c1c(F)cccc1F [Example 257, 1-(2,6-difluorophenyl)-3-(4-(tetrahydro-2H-pyran-4-yl)phenyl)-1,5-dihydro-4H-pyrazolo[4,3-c]pyridin-4-one] | 98 | 96 | – |
| N#Cc1c[nH]c(=O)c2c(Nc3cccc(C(N)=O)c3)cn(C3CCCC3)c12 [Example 178, 3-((7-cyano-1-cyclopentyl-4-oxo-4,5-dihydro-1H-pyrrolo[3,2-c]pyridin-3-yl)amino)benzamide] | 99 | 93 | – |
| NC(=O)c1cc(-c2nn([C@H]3CC[C@H](N)CC3)c3cc[nH]c(=O)c23)cs1 [Example 299, 4-(1-(trans-4-aminocyclohexyl)-4-oxo-4,5-dihydro-1H-pyrazolo[4,3-c]pyridin-3-yl)thiophene-2-carboxamide] | 99 | 99 | – |
| NC(=O)c1cccc(-c2nn(-c3c(F)cccc3F)c3cc[nH]c(=O)c23)c1 [Example 255, 3-(1-(2,6-difluorophenyl)-4-oxo-4,5-dihydro-1H-pyrazolo[4,3-c]pyridin-3-yl)benzamide] | 98 | 93 | – |
| N#Cc1c[nH]c(=O)c2c(-c3ccc(CC(N)=O)cc3)cn(C3CCCC3)c12 [Example 95, 2-(4-(7-cyano-1-cyclopentyl-4-oxo-4,5-dihydro-1H-pyrrolo[3,2-c]pyridin-3-yl)phenyl)acetamide] | 98 | 86 | – |
| NC(=O)Cc1cccc(-c2nn(C3CCCC3)c3cc[nH]c(=O)c23)c1 [Example 158, 2-(3-(1-cyclopentyl-4-oxo-4,5-dihydro-1H-pyrazolo[4,3-c]pyridin-3-yl)phenyl)acetamide] | 91 | 91 | – |
| O=C1NCCN1c1ccc(-c2nn(-c3c(F)cccc3F)c3c(Cl)c[nH]c(=O)c23)cc1 [Example 225, 7-chloro-1-(2,6-difluorophenyl)-3-(4-(2-oxoimidazolidin-1-yl)phenyl)-1,5-dihydro-4H-pyrazolo[4,3-c]pyridin-4-one] | 99 | 58 | – |
| CC1(O)CCC(n2nc(-c3ccc(S(N)(=O)=O)cc3)c3c(=O)[nH]ccc32)CC1 (stereo not shown) [Example 196, 4-(1-(4-hydroxy-4-methylcyclohexyl)-4-oxo-4,5-dihydro-1H-pyrazolo[4,3-c]pyridin-3-yl)benzenesulfonamide] | 100 | – | inhibition at 10 µM (JAK1; [1]): 100% |
| Cc1ccccc1-c1nn(-c2csc(C(=O)O)c2)c2c(=O)[nH]cc(C#N)c12 [Example 69, 4-(4-cyano-3-(2-methylphenyl)-7-oxo-6,7-dihydro-1H-pyrazolo[3,4-c]pyridin-1-yl)thiophene-2-carboxylic acid] | 92 | 28 | – |
| N#Cc1c[nH]c(=O)c2c(-c3cccc(N4CCOCC4)c3)cn(C3CCCC3)c12 [Example 140, 1-cyclopentyl-3-(3-(morpholin-4-yl)phenyl)-4-oxo-4,5-dihydro-1H-pyrrolo[3,2-c]pyridine-7-carbonitrile] | 91 | 17 | – |
| O=c1[nH]cc(Br)c2c1c(-c1ccc(N3CCOCC3)cc1)nn2-c1c(F)cccc1F [Example 218, 7-bromo-1-(2,6-difluorophenyl)-3-(4-(morpholin-4-yl)phenyl)-1,5-dihydro-4H-pyrazolo[4,3-c]pyridin-4-one] | 99 | – | inhibition at 10 µM (JAK1; [1]): 85% |
| N#Cc1c[nH]c(=O)c2c(-c3ccccc3)cn(C3CCCC3)c12 [Example 103, 1-cyclopentyl-4-oxo-3-phenyl-4,5-dihydro-1H-pyrrolo[3,2-c]pyridine-7-carbonitrile] | 91 | 48 | – |
| NC(=O)c1cc(F)cc(-c2nn(-c3c(F)cccc3F)c3cc[nH]c(=O)c23)c1 [Example 268, 3-(1-(2,6-difluorophenyl)-4-oxo-4,5-dihydro-1H-pyrazolo[4,3-c]pyridin-3-yl)-5-fluorobenzamide] | 33 | 4 | – |
| Cc1ccccc1-c1nn(-c2csc(C(N)=O)c2)c2c(=O)[nH]cc(Br)c12 [Example 80, 4-(4-bromo-3-(2-methylphenyl)-7-oxo-6,7-dihydro-1H-pyrazolo[3,4-c]pyridin-1-yl)thiophene-2-carboxamide] | 97 | 82 | – |
| NC(=O)Cc1cccc(-c2nn(-c3c(F)cccc3F)c3c(Br)c[nH]c(=O)c23)c1 [Example 147, 2-(3-(7-bromo-1-(2,6-difluorophenyl)-4-oxo-4,5-dihydro-1H-pyrazolo[4,3-c]pyridin-3-yl)phenyl)acetamide] | 99 | 74 | – |
| C[C@H]1COCCN1c1ccc(-c2nn(-c3c(F)cccc3F)c3cc[nH]c(=O)c23)cc1 [Example 245, 1-(2,6-difluorophenyl)-3-(4-((3S)-3-methylmorpholin-4-yl)phenyl)-1,5-dihydro-4H-pyrazolo[4,3-c]pyridin-4-one] | 100 | 96 | – |
